Earlier results as cited in patent US7910678B2, “Copolymers having 1-methyl-2-methoxyethyl moieties” (Abbott Laboratories, priority 2006, dated 2011).
Like-named read-outs stand apart in the source and are kept apart here.

Tested on: mouse

COCC(C)O (stereo not shown) [1-methoxy-2-propanol]
Oral-mouse LD50 (oral): 11700 mg/kg

COCCO [2-methoxyethanol]
Oral-mouse LD50 (oral): 2560 mg/kg

CCO [ethanol]
Oral-mouse LD50 (in vivo, po): 3450 mg/kg

CCOCCO [2-ethoxyethanol]
Oral-mouse LD50 (oral): 2451 mg/kg
